Source: article PMC3242765, “Inhibitors of Alphavirus Entry and Replication Identified with a Stable Chikungunya Replicon Cell Line and Virus-Based Assays” (PLoS ONE, 2011)
Values joined by “and” are separate entries in the source; they are usually repeats but may differ in a detail not shown here. Identical values can stand only once. Counter-ions that a name gives are not always drawn.

What was measured:
CHIKV replicon = assay: microbe, parasite or virus in culture; assay type: cell-based, Chikungunya virus (CHIKV)

Structure (SMILES) | SFV replication % left (surviving fraction, remaining percentage of SFV replication) (SFV-Rluc) | CHIKV replicon % left (CHIKV replicon)
CC(C)(O)C(Cl)(Cl)Cl [Chlorobutanol] | 84.2% | 95.1%
NS(=O)(=O)c1cc2c(cc1Cl)N=CNS2(=O)=O [Chlorothiazide] | 90.3% | 82.1%
CN(C)CC/C=C1/c2ccccc2Sc2ccc(Cl)cc21 [Chlorprothixene hydrochloride] | 90.3% | 78.2%
O=C(O)c1cc(-c2ccccc2)nc2ccccc12 [Cinchophen] | 65.1% | 51.2%
Cl.Cl.OCCN1CCN(CC/C=C2/c3ccccc3Sc3ccc(C(F)(F)F)cc32)CC1 [Cis(Z)-Flupentixol dihydrochloride] | 92.6% | 102.7%
COc1cc(OC)c2ccc(=O)oc2c1 [Citropten] | 67.4% | 106.4%
Oc1c(I)cc(Cl)c2cccnc12 [Clioquinol] | 71.9% | 32.7%
Cl.Cl.OCCN1CCN(CCC=C2c3ccccc3Sc3ccc(Cl)cc32)CC1 [Clopenthixol dihydrochloride] | 55.2% | 40.1%
CC(C)NCC(O)c1ccccc1Cl.Cl.O (stereo not drawn) [Clorprenaline hydrochloride] | 63.7% | 102.2%
CCCNc1ccc(C(=O)OCC(O)CN(C)C)cc1 (stereo not drawn) [Cornecaine] | 77.3% | 80.5%
CCN(CC)c1ccc2cc(-c3nc4ccccc4[nH]3)c(=O)oc2c1 [Coumarin 7] | 37.3% | 51.8%
Cc1cc(=O)oc2c3c4c(cc12)CCCN4CCC3 [Coumarin 102] | 34.6% | 65.4%
O=c1oc2c3c4c(cc2c2c1CCC2)CCCN4CCC3 [Coumarin 106] | 82.1% | 91.5%
O=c1cc(C(F)(F)F)c2cc3c4c(c2o1)CCCN4CCC3 [Coumarin 153] | 52.6% | 96.1%
O=c1ccc2ccccc2o1 [Coumarin] | 68.8% | 85.0%
Oc1cc(O)c2cc(O)c(-c3ccc(O)c(O)c3)[o+]c2c1 [Cyanidin chloride] | 24.5% | 54.8%
O=S(=O)(O)NC1CCCCC1 [Cyclamic acid] | 74.9% | 107.5%
OCc1ccccc1O[C@@H]1O[C@H](CO)[C@@H](O)[C@H](O)[C@H]1O [D(-)-Salicin] | 104.4% | 99.4%
O=c1c(-c2ccc(O)cc2)coc2cc(O)ccc12 [Daidzein] | 76.6% | 104.4%
COc1ccc2ccc(=O)oc2c1O [Daphnetin-7-methylether] | 105.6% | 89.9%
O=c1ccc2ccc(O)c(O)c2o1 [Daphnetin] | 90.6% and 81.7% | 103.7% and 92.1%
C[C@H](CCC(=O)O)[C@H]1CC[C@H]2[C@@H]3CC[C@@H]4C[C@H](O)CC[C@]4(C)[C@H]3C[C@H](O)[C@]12C [Deoxycholic acid] | 86.5% | 100.8%
Cc1cc(N)c2ccccc2[n+]1CCCCCCCCCC[n+]1c(C)cc(N)c2ccccc21 [Dequalinium chloride] | 62.5% | 39.4%
NCCN1C(=O)CN=C(c2ccccc2F)c2cc(Cl)ccc21 [Desalkylflurazepam] | 68.5% | 74.3%
CN(C)CC[C@@H](c1ccc(Br)cc1)c1ccccn1 [Dexbrompheniramine maleate] | 69.6% | 100.4%
CN(C)CC[C@@H](c1ccc(Cl)cc1)c1ccccn1 [Dexchlorpheniramine maleate] | 68.1% | 51.7%
CN1C(=O)CN=C(c2ccccc2)c2cc(Cl)ccc21 [Diazepam] | 73.6% | 84.0%

Structure (SMILES) | SFV replication % left (surviving fraction, remaining percentage of SFV replication) (SFV-Rluc) | CHIKV replicon % left (CHIKV replicon)
CCCCOc1cc(C(=O)NCCN(CC)CC)c2ccccc2n1 [Dibucaine hydrochloride] | 77.8% | 100.5%
CC(C)NCC(O)c1ccc(Cl)c(Cl)c1.Cl (stereo not drawn) [Dichloroisoproterenol hydrochloride] | 49.6% | 69.2%
O=c1oc2ccccc2c(O)c1Cc1c(O)c2ccccc2oc1=O [Dicumarol] | 65.6% | 43.0%
CCN(CC)C(C)C(=O)c1ccccc1 (stereo not drawn) [Diethylpropion hydrochloride] | 47.1% | 29.6%
C[C@H]1O[C@@H](O[C@H]2[C@@H](O)C[C@H](O[C@H]3[C@@H](O)C[C@H](O[C@H]4CC[C@@]5(C)[C@H](CC[C@@H]6[C@@H]5C[C@@H](O)[C@]5(C)[C@@H](C7=CC(=O)OC7)CC[C@]65O)C4)O[C@@H]3C)O[C@@H]2C)C[C@H](O)[C@@H]1O [Digoxin] | 141.9% | 94.3%
CN(C)CCOC(c1ccccc1)c1ccccc1 [Diphenhydramine hydrochloride] | 41.0% | 194.3%
O=C1NC(=O)C(c2ccccc2)(c2ccccc2)N1 [Diphenylhydantoin [phenytoin]] | 66.3% | 78.1%
CN(C)CCC=C1c2ccccc2COc2ccccc21 [Doxepin hydrochloride] | 21.6% | 87.2%
CCOc1ccc(NC(N)=O)cc1 [Dulcin [p-phenetylurea]] | 103.3% | 70.2%
O=c1oc2c(O)c(O)cc3c(=O)oc4c(O)c(O)cc1c4c23 [Ellagic acid] | 64.9% | 71.1%
CC[C@H]1CN2CCc3cc(OC)c(OC)cc3[C@@H]2C[C@@H]1C[C@H]1NCCc2cc(OC)c(OC)cc21 [Emetine dihydrochloride] | 63.1% | 80.9%
O=c1ccc2cc(O)c(O)cc2o1 [Esculetin] | 103.6% | 89.2%
O.O.O.O=c1ccc2cc(O[C@@H]3O[C@H](CO)[C@@H](O)[C@H](O)[C@H]3O)c(O)cc2o1.O=c1ccc2cc(O[C@@H]3O[C@H](CO)[C@@H](O)[C@H](O)[C@H]3O)c(O)cc2o1 [Esculin sesquihydrate] | 95.0% | 102.6%
CCN(CC)C(=O)c1ccc(O)c(OC)c1 [Ethamivan] | 85.5% | 43.1%
CCN(CC)C(C)CN1c2ccccc2Sc2ccccc21 (stereo not drawn) [Ethopropazine hydrochloride] | 20.1% | 59.8%
CCOc1ccc2c(c1)C(C)=CC(C)(C)N2 [Ethoxyquin] | 96.4% | 83.6%
CCOC(=O)c1ccc(O)cc1 [Ethyl 4-hydroxybenzoate] | 127.8% | 94.4%
CCC(N)C(O)c1ccc(O)c(O)c1 (stereo not drawn) [Ethylnorepinephrine] | 126.8% | 104.3%
CCNCC(O)c1cccc(O)c1 (stereo not drawn) [Etilefrin] | 116.8% | 87.1%
CC(C(=O)[O-])c1cccc(Oc2ccccc2)c1.CC(C(=O)[O-])c1cccc(Oc2ccccc2)c1.[Ca+2] (stereo not drawn) [Fenoprofen calcium salt] | 87.6% | 78.3%
CC(Cc1ccc(O)cc1)NCC(O)c1cc(O)cc(O)c1 (stereo not drawn) [Fenoterol hydrobromide] | 106.6% | 88.4%
COc1cc(/C=C/C(=O)O)ccc1O [Ferulic acid] | 63.4% | 55.8%
O=c1cc(-c2ccccc2)oc2ccccc12 [Flavone] | 52.2% | 39.4%
O=C(O)/C=C\C(=O)O.O=C(O)/C=C\C(=O)O.OCCN1CCN(CCCN2c3ccccc3Sc3ccc(C(F)(F)F)cc32)CC1 [Fluphenatzinemaleate] | 98.9% | 104.3%
Nc1nc(=O)c2nc(CNc3ccc(C(=O)N[C@@H](CCC(=O)O)C(=O)O)cc3)cnc2[nH]1 [Folic acid] | 100.0% | 78.1%
COc1cc2ccc(=O)oc2c(O)c1O [Fraxetin] | 103.6% | 95.4%
COc1cc2ccc(=O)oc2c(O)c1OC [Fraxidin] | 77.8% | 104.3%
